Measurements taken from PubChem BioAssay AID485280 (The Scripps Research Institute Molecular Screening Center, 2010).
The source made the active and inactive calls.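 Rule for the calls: active = CC50 of 24 µM or less, the dose killing half of Huh-7.5 liver cells, showing toxicity to them; inactive = no cytotoxicity, CC50 exceeds 24 µM.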

These molecules were tested on Huh-7.5 viability, XTT absorbance (assay: cytotoxicity in Huh-7.5 cells, late-stage follow-up, cytotoxicity control for HCV core dimerization inhibitor project, cell-based, absorbance (AID 485280)).
In the case of `O=C(/C=C/c1ccc(Br)o1)OCc1nc2ccsc2c(=O)[nH]1`, the CC50 is reported as 163 µM (inactive). With `Cc1ccccc1N1C(=O)/C(=C/c2ccco2)C(=O)NC1=S` the CC50 was 143 µM (inactive). In the case of `COc1ccc(NC(=O)CN(C)C(=O)c2cc3c(s2)CCC3)cc1`, the CC50 is reported as 123 µM (inactive). For `Cc1ccc(Cc2c(C)nc3nc(SCC(=O)NCCCN4CCCCCC4)nn3c2C)cc1`, the CC50 was 27.4 µM (inactive). With `CCN(CC(=O)Nc1c(F)cccc1F)C(=O)/C=C/c1ccc2ccccc2n1` the CC50 was 148 µM (inactive). For `COCCN(C(=O)COC(=O)c1cc2c(s1)CCC2)c1c(N)n(Cc2ccccc2)c(=O)[nH]c1=O`, the CC50 was 141 µM (inactive). `CCCCCC#CCC#CCC#CCC#CCCCC(=O)O` was tested, and the CC50 was 179 µM (inactive).
